Test results taken from publication PMC6112376, “Comprehensive Analyses and Prioritization of Tox21 10K Chemicals Affecting Mitochondrial Function by in-Depth Mechanistic Studies” (Environmental Health Perspectives, 2018).
Read-outs that look alike come from different tables or passages of the source.

Experiments:
HepG2 cells [1] = details: cited from earlier work
HepG2 cells [2] = test: cells; details: Homo sapiens; for IC50: HepG2, read-out: MMP assays IC50 (µM) HepG2; for Emax: HepG2, read-out: MMP assays efficacy (%) HepG2
rat primary hepatocytes = test: MMP assay in rat primary hepatocytes; details: for IC50: Rattus norvegicus, Hepatocyte, read-out: MMP assays IC50 (µM) Rat Hepatocytes; for MMP assays efficacy (%) Rat Hepatocytes / MMP assays IC50 (µM) Rat Hepatocytes: mean ± SD of three experiments
[3] = read-out: MMP assays IC50 (µM), qHTS-HepG2
[4] = read-out: MMP assays IC50 (µM) qHTS-HepG2

SMILES	MMP assays efficacy (%) qHTS-HepG2 (HepG2 cells [1]) [%]	IC50 (HepG2 cells [1]; [3]) [µM]	IC50 (HepG2 cells [2]) [µM]	Emax (HepG2 cells [2]) [%]	IC50 (rat primary hepatocytes) [µM]	MMP assays efficacy (%) Rat Hepatocytes (rat primary hepatocytes)	MMP assays IC50 (µM) Rat Hepatocytes (rat primary hepatocytes)	IC50 (HepG2 cells [1]; [4]) [µM]
Oc1c2ccccc2c2c3c(cccc13)N=N2 [SP600125]	-97±10	0.92 ± 0.14	1.55	105	21.1 ± 2.91	-82±45%	–	–
O=C1c2ccccc2C(=O)C1(O)O [Ninhydrin]	-86±19	32 ± 9.69	56.2	85	–	inactive	inactive	–
O=c1c(-c2ccccc2)c1-c1ccccc1 [Diphenylcyclopropenone]	-79±6	–	27.5	79	–	inactive	inactive	25.6 ± 1.67
N#CSCSc1nc2ccccc2s1 [2-(Thiocyanomethylthio)benzothiazole]	-85±16	–	56.2	73	30.5 ± 26.4	-136±65%	–	33.1 ± 4.58
Cc1nnc2n1-c1sc(CCc3ccc(CC(C)C)cc3)cc1C(c1ccccc1Cl)=NC2C (stereo not shown) [Israpafant]	–	22 ± 1.49	27.5	108	23.5 ± 5.67	-55±10%	–	–
Cc1ccc2c(c1)C(=O)c1ccccc1C2=O [Compound 2-Methylanthraquinone]	-77±13	–	11.2	51	5.97 ± 0.49	-36±2%	–	6.33 ± 1.15
O=C(O)c1ccccc1Nc1cccc(C(F)(F)F)c1 [Flufenamic acid]	-129±20	36.6 ± 1.87	17.3	108	14.5 ± 4.99	-111±31%	–	–
Nc1ccc([N+](=O)[O-])cc1O [Compound 2-Amino-5-nitrophenol]	-70±18	–	35.5	76	52.1 ± 17.7	-63±37%	–	27.4 ± 14.1
CCCCC(CC)CN1C(=O)C2C3C=CC(C3)C2C1=O (stereo not shown) [MGK-264]	-65±7	15.4 ± 10.5	28.2	84	17.8 ± 25.1	-55±25%	–	–
Oc1ccc(Sc2ccc(O)cc2)cc1 [4,4'-Thiodiphenol]	-100±12	–	25.1	115	24.7 ± 9.79	-49±9%	–	21.1 ± 2.7
O=C1OC[C@H](Cc2cccc(O)c2)[C@H]1Cc1cccc(O)c1 [Enterolactone]	-79±21	–	10.7	76	–	inactive	inactive	9.99 ± 5.02
CCC(=O)O[C@]1(C(=O)CCl)[C@@H](C)C[C@H]2[C@@H]3C[C@H](F)C4=CC(=O)C=C[C@]4(C)[C@@]3(F)[C@@H](O)C[C@@]21C [Halobetasol propionate]	-106±7	15.2 ± 5.52	13.8	127	25.2 ± 7.02	-82±13%	–	–
O=c1c2ccccc2[se]n1-c1ccccc1 [Ebselen]	-94±8	–	19.4	112	21.4 ± 5.35	-58±5%	–	23.2 ± 0.93
CC(C)(C)c1ccc(O)c(C(C)(C)C)c1 [2,4-Di-tert-butylphenol]	-95±5	–	3.98	101	24 ± 16.6	-131±66%	–	3.5 ± 0.73
Nc1cc([N+](=O)[O-])ccc1C(=O)O [4-Nitroanthranilic acid]	-62±14	–	17.8	51	–	inactive	inactive	38.6 ± 17.2
OCc1c2ccccc2cc2ccccc12 [Compound 9-Anthracenemethanol]	-104±23	–	19.9	88	21.7 ± 15.7	-68±25%	–	34.5 ± 11.5
CCOc1ccc(/N=N/c2ccc(N)cc2N)cc1 [Ethoxazene]	-91±7	–	2.82	94	4.96 ± 3.42	-106±32%	–	2.7 ± 1.13

SMILES	MMP assays efficacy (%) qHTS-HepG2 (HepG2 cells [1]) [%]	IC50 (HepG2 cells [1]; [3]) [µM]	IC50 (HepG2 cells [2]) [µM]	Emax (HepG2 cells [2]) [%]	IC50 (rat primary hepatocytes) [µM]	MMP assays efficacy (%) Rat Hepatocytes (rat primary hepatocytes)	MMP assays IC50 (µM) Rat Hepatocytes (rat primary hepatocytes)	IC50 (HepG2 cells [1]; [4]) [µM]
N#CC(C#N)=Cc1ccc(O)c(O)c1 [Tyrphostin 23]	-107±6	17.7 ± 6.46	17.3	103	–	inactive	inactive	–
Cc1cc(O)c(C(C)(C)C)cc1C(C)(C)C [4,6-Di-tert-butyl-m-cresol]	–	–	2.51	96	45.9 ± 14.7	-103±14%	–	2.25 ± 1.49
Cc1cc(O)c(C(C)(C)C)cc1Sc1cc(C(C)(C)C)c(O)cc1C [4,4'-Thiobis(6-tert-butyl-m-cresol)]	-104±19	–	3.16	115	24.8 ± 11.8	-78±17%	–	1.86 ± 1.18
Cc1ccc2c(Br)cc(Br)c(O)c2n1 [Broquinaldol]	-114±44	–	12.6	114	38.6 ± 34.6	-87±93%	–	26.6 ± 4
Nc1ccc(O)c([N+](=O)[O-])c1 [Compound 4-Amino-2-nitrophenol]	-86±33	–	14.1	97	33.5 ± 2.73	-90±12%	–	15.4 ± 10.6
Nc1cccc(N)n1 [2,6-Diaminopyridine]	-68±18	–	35.5	84	20.9 ± 15.7	-75±28%	–	31.3 ± 10.3
O=[N+]([O-])c1ccc(O)c2ncccc12 [Nitroxoline]	-80±8	9.22 ± 2.41	19.9	94	72.3 ± 39.1	-69±54%	–	–
CNc1ncnc2nc[nH]c12 [(N-6)-Methyladenine]	-65±7	–	6.31	56	–	inactive	inactive	5.98 ± 5.84
O=C(c1ccccc1)c1ccc(O)cc1 [Compound 4-Hydroxybenzophenone]	-87±12	–	28.2	116	17.8 ± 28	-82±39%	–	41.3 ± 18.1
CC(C)(C)C1=CC(=O)C=C(C(C)(C)C)C1=O	-73±22	–	39.8	80	–	inactive	inactive	18.6 ± 12.4
CC/C(=C(/CC)c1ccc(O)cc1)c1ccc(O)cc1 [Diethylstilbestrol]	-105±14	–	–	112	25.2 ± 21.7	–	–	–
O=C(Nc1ccc(O)cc1)c1ccccc1O [Osalmid]	-96±3	6.68 ± 0.77	6.31	101	30 ± 21.3	-93±20%	–	–
CN1C(C(=O)Nc2ccccn2)=C(O)c2sc(Cl)cc2S1(=O)=O [Lornoxicam]	-92±10	9.44 ± 1.09	6.15	73	3.3 ± 2.52	-57±10%	–	–
CSc1nc2cc(Cl)c(Oc3cccc(Cl)c3Cl)cc2[nH]1 [Triclabendazole]	-114±15	1.84 ± 0.15	5.48	97	15.6 ± 2.52	-91±10%	–	–
CC(C)(C)CC(C)(C)c1ccc(O)c(Cc2ccc(Cl)cc2Cl)c1 [Clofoctol]	-112±5	–	4.35	92	15.7 ± 6.04	-65±37%	–	1.64 ± 0.13
CC(=O)Oc1cccc2c1C(=O)c1c(OC(C)=O)cc(C(=O)O)cc1C2=O [Diacerein]	-81±16	–	17.3	61	14.2 ± 11.3	-70±14%	–	20.6 ± 8.26
Cc1cc(O)c(Cl)c(C)c1Cl [2,4-Dichloro-3,5-dimethylphenol]	-104±10	–	8.91	95	–	inactive	inactive	5.88 ± 4.85
